Experimental data taken from US20220017541A1, “INHIBITORS OF ARGINASE” (Black Belt Tx Ltd, priority 2018, published 2022).

Key:
recombinant human ARG2 = target: T1, recombinant human ARG2 (Homo sapiens, UniProt P78540); test: Arginase enzymatic assay in vitro, recombinant human ARG2 (colorimetric urea detection); type: biochemical; conditions: recombinant human arginase 2; read-out: IC50 Inh rhARG2
T1 construct: purchased BPS Bioscience 71659
T1 sequence (P78540 23-354): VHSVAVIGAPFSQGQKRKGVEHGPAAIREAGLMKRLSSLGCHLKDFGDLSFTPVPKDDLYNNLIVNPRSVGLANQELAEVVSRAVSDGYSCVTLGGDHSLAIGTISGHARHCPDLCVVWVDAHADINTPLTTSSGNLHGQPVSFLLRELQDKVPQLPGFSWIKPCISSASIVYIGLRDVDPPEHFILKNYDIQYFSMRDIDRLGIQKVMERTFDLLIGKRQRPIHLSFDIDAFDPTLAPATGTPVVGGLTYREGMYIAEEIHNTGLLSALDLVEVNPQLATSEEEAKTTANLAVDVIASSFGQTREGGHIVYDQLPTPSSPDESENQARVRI
Description: (§1) Arginase catalyzes the hydrolysis of L-arginine into L-ornithine and urea. Urea amount produced by this reaction can be detected using a colorimetric assay and used as an indirect measurement of arginase activity. An adapted protocol from (Baggio, R., et al., J Pharmacol Exp Ther, 1999. 290(3): p. 1409-16) was used for the testing the ability of exemplary compounds of the invention to inhibit arginase enzymes from a variety of sources including recombinant human ARG1 and 2, lysates of human red blood cells (RBC) and intact murine macrophages, as described below.
(§2) Compounds of the invention were prepared from powder as 10 mM stock solutions in DMSO and stored in presence of N2 neutral atmosphere at −80° C. For IC50 determination and just before the assay, exemplary compounds were successively diluted to get the following concentrations: 210, 70, 21, 7, 2.1, 0.7, 0.21, 0.07, 0.021, 0.007, 0.0021 and 0.0007 μM (i.e., final concentrations in the wells of 30, 10, 3, 1, 0.3, 0.1, 0.03, 0.01, 0.003, 0.001, 0.0003, 0.0001 μM).
(§3) Assays were run in clear flat bottom 96-well plates (Nunclon, Cat. No. #167008) adding in each well the following solutions in this order: (1) 10 μl of Tris-HCl solution supplemented with 0.1% bovine serum albumin (BSA) containing 1.563 μg/ml recombinant human ARG1 (R&D System, Cat. No. #5868-AR-010), (2) 30 μl of Tris-HCl buffer containing 10 mM MnCl2 and (3) 10 μL of a pre-dilution of each test article or DMSO (vehicle). Compounds were allowed to interact with the enzyme-cofactor complex pre-incubating the plate at 37° C. for 30 min. To start the reaction, 20 μl of 50 mM L-arginine (Sigma Aldrich Cat. #A5006-100G) were added to each well in exception of the blank reaction (see below). All reactions were allowed to happen for 1 h at 37° C. To detect the urea production, reactions were stopped by adding 200 μl of a mixture of reagent A (4 mM o-phthalaldehyde in 50 mM Boric Acid, 1 M Sulfuric Acid, 0.03% Brij-35 (w/v)) and reagent B (4 mM N-(1-naphthyl)ethylenediamine in 50 mM Boric Acid, 1 M Sulfuric Acid, 0.03% Brij-35 (w/v)) in equal proportion. Color product was developed for 1 h at room temperature (RT) protected from light and then absorbance at 520 nm was measured using a Multifunction Microplate Reader (Synergy 4, Bioteck). Blank reactions were carried out by adding the L-arginine substrate only after the addition of mixture A-B. All reactions were carried out in duplicates.
(§4) The inhibition of urea production was calculated subtracting the absorbance from the blank reaction (zero enzymatic urea production) to the absorbance from all reactions and it was expressed as the percentage of the absorbance from the reaction containing the test article with respect to the absorbance from vehicle reaction (maximum of urea production).
For testing inhibitory activity over recombinant human arginase II, 10 μl of Tris-HCl solution supplemented with 0.1% BSA containing 1.5 μg/ml recombinant human ARG2 (BPS Bioscience, Cat. No. #71659) was used instead of ARG1.

[1] = target: T2, native ARG1 enzyme in lysates of RBC (Homo sapiens, UniProt P05089); test: Arginase enzymatic assay in RBC lysates from healthy donors; type: biochemical; conditions: human red blood cell lysates; read-out: IC50 Inh RBC
T2 construct: native ARG1 enzyme in lysates of RBC; from tissue; host or cells: human red blood cell lysates from healthy donors
T2 sequence (P05089 1-322): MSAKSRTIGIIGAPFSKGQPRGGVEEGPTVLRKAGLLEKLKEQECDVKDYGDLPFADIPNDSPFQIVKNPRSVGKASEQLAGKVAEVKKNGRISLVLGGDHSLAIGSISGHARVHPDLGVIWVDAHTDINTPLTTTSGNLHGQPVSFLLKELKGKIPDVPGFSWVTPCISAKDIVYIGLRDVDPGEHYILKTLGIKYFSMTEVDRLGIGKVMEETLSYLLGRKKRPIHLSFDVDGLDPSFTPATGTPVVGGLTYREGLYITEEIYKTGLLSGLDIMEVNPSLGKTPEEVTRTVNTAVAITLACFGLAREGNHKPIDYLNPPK
Description: as §1, §2, §3, §4
For testing inhibitory activity over RBC lysates from healthy donors, 10 μl of Tris-HCl solution supplemented with 0.1% BSA containing 160 μg RBC lysates per well was used instead.

recombinant human ARG1 = target: T3, recombinant human ARG1 (Homo sapiens, UniProt P05089); test: Arginase enzymatic assay in vitro, recombinant human ARG1 (colorimetric urea detection); type: biochemical; conditions: recombinant human arginase 1; read-out: IC50 Inh rhARG1
T3 construct: purchased R&D System 5868-AR-010
T3 sequence (P05089 1-322): T2 sequence (P05089 1-322)
Description: as §1, §2, §3, §4

[2] = target: T4, arginase activity in intact BMM-M2 cells (Mus musculus, UniProt Q61176); test: Cell-based arginase assay: urea production by cultured BMM-M2 cells; conditions: 10 μM test compound, 24 h; for inhibition at 10 µM: read-out: Inh. urea production @10 μM (%)
T4 construct: endogenous in cells; host or cells: bone-marrow derived macrophages from male C57BL/6 mice, polarised to M2 with IL-4
T4 sequence (Q61176 1-323): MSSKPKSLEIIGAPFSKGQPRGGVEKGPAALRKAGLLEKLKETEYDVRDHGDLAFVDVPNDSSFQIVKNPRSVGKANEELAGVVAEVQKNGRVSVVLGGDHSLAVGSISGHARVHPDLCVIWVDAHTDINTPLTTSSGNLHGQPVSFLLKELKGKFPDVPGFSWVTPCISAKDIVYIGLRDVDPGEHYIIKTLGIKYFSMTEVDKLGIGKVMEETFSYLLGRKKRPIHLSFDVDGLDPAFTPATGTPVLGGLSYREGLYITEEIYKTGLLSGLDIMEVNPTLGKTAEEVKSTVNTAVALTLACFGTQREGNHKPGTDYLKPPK
Method: Murine bone-marrow derived macrophages (BMM) represent a convenient in vitro model that enables differentiation of these cells towards M1 or M2 macrophages. Briefly, male C57BL/6 mice 7-8 weeks old were euthanized by carbon dioxide asphyxiation. Femur and tibiae bones were removed under aseptic conditions and collected in a plate containing sterile ice-cold PBS 1×. After sterilization of bones in 70% ethanol during 1 min, bones were placed into a clean Petri dish containing fresh sterile ice-cold PBS 1×. The ends of each bone were cut and the marrow cavity was flushed using forceps and syringes filled with pre-warmed complete α-MEM growing medium (α-MEM without red phenol (Life Technologies, Cat. No. #41061-029) supplemented with 10% FBS, penicillin and streptomycin). Bone marrow (BM) cells were harvested in a 15 ml clean tube and centrifuged at 400 g for 8 min at RT. Supernatant was discarded and BM pellet was re-suspended in 5 ml Ammonium-Chloride-Potassium (ACK) buffer for 5 minutes at RT to lysis RBC. BM cell suspension was centrifuged at 400 g for 8 min at RT. Supernatant was discarded and BM cell pellet was re-suspended in complete α-MEM growing medium and passed through a 70 μm cell restrainer to eliminate solid contaminates and cellular aggregates. BM cells were seeded in 8 ml of complete α-MEM growing medium supplemented with 100 ng/ml recombinant mouse M-CSF (R&D Systems, Cat. No. #416-ML-050) in 100-mm dishes. BM cells were cultured overnight to get rid of contaminating stromal cells in a humidified incubator with 5% CO2 at 37° C. At the following day, non-adherent cells were collected in a clean 15-ml tube and centrifuged at 400 g for 8 min at RT. Cell pellet was re-suspended in complete α-MEM growing medium and counted using a hemocytometer Neubauer's chamber. Hematopoietic precursor cells were differentiated into BMM in presence of complete α-MEM growing medium supplemented 50 ng/ml M-CSF for 3 days. Finally to polarize BMM towards M2 phenotype, cells were incubated in presence 20 ng/ml of recombinant mouse IL-4 (R&D Systems, Cat. No. #404-ML-010) added to fresh complete α-MEM growing medium supplemented 50 ng/ml M-CSF for 24 h.
At the day of the experiment, BMM-M2 were treated for 24 h with vehicle (DMSO) or compounds of the invention at 1 and 10 μM prepared in fresh complete α-MEM growing medium supplemented 50 ng/ml M-CSF, 20 ng/ml IL-4 and 10 mM L-arginine (Cat. No. #A5006, Sigma Aldrich). At the next day, 70 μl aliquots of each treated culture media (supernatants) were transferred into a clear 96-well plate. Measurements of urea produced by BMM-M2 were performed using the adapted protocol detailed in Example B1. Wells without BMM-M2 containing only treatment media (vehicle) were used to determine the zero cell-derived urea production (blank). All treatments were carried out in triplicates.
The inhibition of urea production was calculated subtracting the absorbance from the blank to the absorbance from all treatments and it was expressed as the percentage of the absorbance from the reaction containing the test article treatment with respect to the absorbance from vehicle treatment (maximum of urea production).

Compound | IC50 (recombinant human ARG2) | IC50 [1] | IC50 (recombinant human ARG1) | Inh. urea production @10 μM (%) [2] | inhibition at 10 µM [2]
NC(CCCCB(O)O)(C(=O)O)C1CCN(C2CCCc3cc(Cl)ccc32)CC1 (stereo not drawn) [Compound 16, 2-amino-6-borono-2-(1-(6-chloro-1,2,3,4-tetrahydronaphthalen-1-yl)piperidin-4-yl)hexanoic acid] | < 500 nM | < 500 nM | < 500 nM |  | 
NC(=O)C(N)(CCCCB(O)O)C1CCN(C2CCc3cc(Cl)ccc32)CC1 (stereo not drawn) [Compound 81, (5,6-diamino-5-(1-(5-chloro-2,3-dihydro-1H-inden-1-yl)piperidin-4-yl)-6-oxohexyl)boronic acid] | 500 to 5000 nM | < 500 nM | 500 to 5000 nM |  | 
NC(CCCCB(O)O)(C(=O)O)C1CCN(C2CCCc3c(Br)cccc32)CC1 (single isomer, unassigned) [Compound 86, 2-amino-6-borono-2-(1-(5-bromo-1,2,3,4-tetrahydronaphthalen-1-yl)piperidin-4-yl)hexanoic acid] | 500 to 5000 nM |  | < 500 nM | ++ (25% < % inhibition < 15% at 10 μM test compound) | 
NC(CCCCB(O)O)(C(=O)O)C1CCN(C2CCCc3cccnc32)CC1 (single isomer, unassigned) [Compound 32, 2-amino-6-borono-2-(1-(5,6,7,8-tetrahydroquinolin-8-yl)piperidin-4-yl)hexanoic acid] | < 500 nM | < 500 nM | < 500 nM |  | 
NC(CCCCB(O)O)(C(=O)O)C1CCN(C2CCCc3cc(-c4ccccc4)ccc32)CC1 (single isomer, unassigned) [Compound 87, 2-amino-6-borono-2-(1-(6-phenyl-1,2,3,4-tetrahydronaphthalen-1-yl)piperidin-4-yl)hexanoic acid] | < 500 nM |  | < 500 nM |  | > 25%
NC(CCCCB(O)O)(C(=O)O)C1CCN(C2CCc3cc(Cl)ccc32)C1 (stereo not drawn) [Compound 82, 2-amino-6-borono-2-[1-(5-chloroindan-1-yl)pyrrolidin-3-yl]hexanoic acid] | 500 to 5000 nM |  | < 500 nM |  | > 25%
NC(CCCCB(O)O)(C(=O)O)C1CCN(C2CCCc3cc(Cl)ccc32)C1 (stereo not drawn) [Compound 48, 2-amino-6-borono-2-[1-(6-chlorotetralin-1-yl)pyrrolidin-3-yl]hexanoic acid] | 500 to 5000 nM |  | 500 to 5000 nM |  | < 15%
